{
  "source": "patent US7811797B2",
  "about": "“α-isomaltosylglucosaccharide-forming enzyme, process and uses of the same” (Kabushiki Kaisha Hayashibara Seibutsu Kagaku Kenkyujo, priority 2000, dated 2010)",
  "key": {"[1]": {"assay": "Thermostability of aqueous cyclotetrasaccharide solution", "assay_type": "physicochemical", "settings": "10% (w/v) aqueous solution, 120° C.; for Purity (%) after heating: HPLC", "procedure": "After the heating, the aqueous solution was cooled under atmospheric conditions and measured for coloration degree and determined for purity on HPLC. The coloration degree was evaluated based on the absorbance in a cell with a 1-cm light pass at a wavelength of 480 nm."}, "[2]": {"tested_on": "Clostridium perfringens JCM 3816", "assay_type": "cell-based", "settings": "PYF medium with 0.5% saccharide, 37° C., four days, anaerobic"}, "[3]": {"tested_on": "Eubacterium aerofaciens ATCC 25986", "assay": "Assimilation test, Eubacterium aerofaciens", "assay_type": "cell-based", "settings": "PYF medium with 0.5% saccharide, 37° C., four days, anaerobic"}, "[4]": {"assay": "Saturation concentration of cyclotetrasaccharide in water", "assay_type": "physicochemical", "excerpt": "Each resulting saturated solution of cyclotetrasaccharide was membrane filtered to remove undissolved cyclotetrasaccharide, and each filtrate was then examined for moisture content by the drying loss method to determine a saturation concentration of cyclotetrasaccharide at respective temperatures."}},
  "data": [
    {"smiles": "OCC1OC2OCC3O[C@H](O[C@H]4C(O)C(CO)OC(OCC5O[C@H](O[C@@H](C1O)C2O)C(O)C(O)[C@@H]5O)C4O)C(O)C(O)[C@@H]3O", "note": "(stereo partly drawn) [Cyclotetrasaccharide, cyclo{→6)-α-D-glucopyranosyl-(1→3)-α-D-glucopyranosyl-(1→6)-α-D-glucopyranosyl-(1→3)-α-D-glucopyransoyl-(1→}]", "values": [
      {"measurement": "Coloration degree (A480 nm)", "setting": "[1]; heating time 0 min", "result": 0.00, "unit": "A480 nm"},
      {"measurement": "Purity (%) after heating", "setting": "[1]; heating time 0 min", "result": 100, "unit": "%"},
      {"measurement": "Coloration degree (A480 nm)", "setting": "[1]; heating time 30 min", "result": 0.00, "unit": "A480 nm"},
      {"measurement": "Purity (%) after heating", "setting": "[1]; heating time 30 min", "result": 100, "unit": "%"},
      {"measurement": "Coloration degree (A480 nm)", "setting": "[1]; heating time 60 min", "result": 0.00, "unit": "A480 nm"},
      {"measurement": "Purity (%) after heating", "setting": "[1]; heating time 60 min", "result": 100, "unit": "%"},
      {"measurement": "Coloration degree (A480 nm)", "setting": "[1]; heating time 90 min", "result": 0.00, "unit": "A480 nm"},
      {"measurement": "Purity (%) after heating", "setting": "[1]; heating time 90 min", "result": 100, "unit": "%"},
      {"measurement": "Assimilability", "setting": "[2]", "result": "− (judged negative (−) when the post culture had a pH of 6.0 or higher)"},
      {"measurement": "Assimilability", "setting": "[3]", "result": "− (judged negative (−) when the post culture had a pH of 6.0 or higher)"},
      {"measurement": "Saturation concentration (%)", "setting": "[4]; 10° C.", "result": 30.3, "unit": "%"},
      {"measurement": "Saturation concentration (%)", "setting": "[4]; 30° C.", "result": 34.2, "unit": "%"},
      {"measurement": "Saturation concentration (%)", "setting": "[4]; 50° C.", "result": 42.6, "unit": "%"},
      {"measurement": "Saturation concentration (%)", "setting": "[4]; 70° C.", "result": 53.0, "unit": "%"},
      {"measurement": "Saturation concentration (%)", "setting": "[4]; 90° C.", "result": 70.5, "unit": "%"}
    ]}
  ]
}
